Reference: PubChem BioAssay AID1436 (PCMD, 2008)
Records with an inconclusive call do not appear. Calls of active or inactive are those of the source. How the calls were made is not given here.

Biological target: DNA repair protein RAD51 homolog 1 (Homo sapiens) (UniProt Q06609)
Test: RAD51-DNA association blockers – biochemical, fluorescence, dose response (AID 1436)
Conditions: RAD51 DNA binding

Chain of DNA repair protein RAD51 homolog 1 (Homo sapiens) (Q06609 whole entry, looked up): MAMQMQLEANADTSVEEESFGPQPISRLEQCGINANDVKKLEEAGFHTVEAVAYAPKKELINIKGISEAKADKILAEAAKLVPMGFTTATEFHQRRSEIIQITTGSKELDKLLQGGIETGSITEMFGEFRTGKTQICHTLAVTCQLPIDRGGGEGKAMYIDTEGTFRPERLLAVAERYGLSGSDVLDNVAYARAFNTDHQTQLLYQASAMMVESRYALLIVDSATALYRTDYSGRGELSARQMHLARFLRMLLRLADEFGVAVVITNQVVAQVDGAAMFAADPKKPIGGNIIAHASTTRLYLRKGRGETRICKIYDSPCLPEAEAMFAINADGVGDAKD

| IC50 | Structure (SMILES) |
| --- | --- |
| > 42.5 µM (inactive) | COC(=O)c1ccc(=O)c2nc3/c(=C/O)c(O)cc(=O)c3[nH]c12 |
| > 85 µM (inactive) | COc1cccc2c1C(=O)c1c(O)c3c(c(O)c1C2=O)C[C@@](O)(C(=O)CO)C[C@@H]3O[C@H]1C[C@H](N)[C@@H](O)[C@H](C)O1 |
